98 compounds from ChEMBL document CHEMBL3507680, “University of Dundee, Gates Library screen for HepG2 cell viability” can be followed below.

This data set in a line: Human HepG2 cell viability assay in 384 well format. It is filed as toxicity, cell-based. Further details: dose 125 nL, time 70.5 hour; cytotoxicity at 70.5 h: concentration not given beside the values. To be noted: HepG2 cells, read-out: Inhibition.
Consider `COCCCNC1CCCN(c2ccc(C)nn2)C1` (stereo not drawn), for which the cytotoxicity at 70.5 h was -9.97%.

For the compound `COc1ccc2nc(C3CC3)cc(C(=O)NCc3ncnn3C)c2c1`, the cytotoxicity at 70.5 h was 0.319%.

For `O[C@H]1[C@H](n2cc(-c3cncnc3)nn2)c2ccccc2C12CCNCC2`, the cytotoxicity at 70.5 h is -5.02%.

Turning to `O=C1CCN(C(=O)C2(c3ccc(F)cc3)CCCC2)CCN1`, the cytotoxicity at 70.5 h was -5.37%.

Regarding `Cc1cc2occ(CC(=O)N3CCC4(CCCN(C)C4=O)C3)c2cc1Cl` (stereo not drawn), the cytotoxicity at 70.5 h is -8.33%.

As for `C=C(C)CN(CC)S(=O)(=O)c1ccccc1C#N`, the cytotoxicity at 70.5 h was -7.47%.

As to `COCc1nnc(C(=O)N2CCC(N3CCCCC3)CC2)o1`, the cytotoxicity at 70.5 h came out at 16.4%.

On to `CCn1nc(C)c2nc(C(C)C)nc(N3CCN(C)CC3)c21`, for which the cytotoxicity at 70.5 h came to 29.8%.

On to `CC(Nc1cccc(F)c1C#N)c1cccc(S(N)(=O)=O)c1` (stereo not drawn), for which the cytotoxicity at 70.5 h is -8.67%.

Regarding `Cc1nc2cc(O)nn2c(C)c1CCC(=O)NCCCC(C)C`, the cytotoxicity at 70.5 h is -3.79%.

For the compound `CCC[C@@H](NC(N)=O)C(=O)N1Cc2ccccc2-c2ccccc2C1`, the cytotoxicity at 70.5 h is -2.69%.

As for `O=C1C(Nc2ccc3nccnc3n2)CCN1c1ccccc1` (stereo not drawn), the cytotoxicity at 70.5 h is -6.11%.

With `O=C(Cc1cccs1)N1Cc2nc(CN3CCCC3)oc2C1`, the cytotoxicity at 70.5 h turned out to be 13%.

On to `CS(=O)(=O)c1cc(S(N)(=O)=O)ccc1NCC1CCCO1` (stereo not drawn), for which the cytotoxicity at 70.5 h is -3.22%.

As for `Cc1cc(-c2nn(C)c(Cl)c2CN2CCCCC(N)C2)no1` (stereo not drawn), the cytotoxicity at 70.5 h was -1.48%.

In the case of `CC(=O)N[C@@H](CC(C)C)C(=O)N1CCC(n2cc(C(C)(C)N)nn2)CC1`, the cytotoxicity at 70.5 h is -2.68%.

On to `CC(C)N(C)Cc1cnc2n1CCN(C(=O)c1cccs1)C2`, for which the cytotoxicity at 70.5 h is -15.9%.

With `Cc1cc(C(=O)CN2C(=O)c3ccccc3CS2(=O)=O)c(C)[nH]1`, the cytotoxicity at 70.5 h was -6.26%.

For the compound `Cc1ccc2c(c1)CN(C(=O)c1cccnc1)C(CN(C)C)CO2` (stereo not drawn), the cytotoxicity at 70.5 h was determined as 3.4%.

In the case of `O=C1CC[C@H]2[C@H](CCN2C(=O)C2CCCO2)N1CCN1CCCC1` (stereo partly drawn), the cytotoxicity at 70.5 h is -21.6%.

With `CN(Cc1ccccc1)c1ncccc1CNC1CCCC1`, the cytotoxicity at 70.5 h is -1.34%.

In the case of `Cc1ccc(C(=O)NCCS(=O)(=O)N2CCSCC2)n1C`, the cytotoxicity at 70.5 h was -2.8%.

For `O=C(NCC(CO)Cc1ccc(Cl)cc1)c1ccncc1Cl` (stereo not drawn), the cytotoxicity at 70.5 h is -1.15%.

Turning to `CS(=O)(=O)N1CCC(Nc2ccnc3ccc(Cl)cc23)CC1`, the cytotoxicity at 70.5 h is -3.71%.

As to `COc1cc(C)cc(C(C(=O)O)N(C)Cc2cnn(C)c2)c1OC` (stereo not drawn), the cytotoxicity at 70.5 h is 4.79%.

For `Cc1nc(N2CCCC2)nc(C)c1NS(C)(=O)=O`, the cytotoxicity at 70.5 h came to 0.704%.

Turning to `OC1(CNCc2noc(Cc3ccccc3)n2)CCCNC1` (stereo not drawn), the cytotoxicity at 70.5 h was found to be 0.455%.

Take `COc1c(C2CCCN2Cc2cc(C)no2)c(C)nn1C` (stereo not drawn): the cytotoxicity at 70.5 h is -9.4%.

As for `COCCCNC(=O)c1cn(C(C)(C)C)c2ncccc12`, the cytotoxicity at 70.5 h was -5.22%.

Consider `COc1ccc(S(=O)(=O)NCC(O)c2sccc2C)cc1C` (stereo not drawn), for which the cytotoxicity at 70.5 h is -3.59%.

`Cc1cccc(CN2CC3(CCN(Cc4ccco4)CC3)OCC2=O)n1`: the cytotoxicity at 70.5 h is -3.31%.

For `c1cnc(NCC2Cn3nnc(-c4ccsc4)c3CO2)nc1` (stereo not drawn), the cytotoxicity at 70.5 h was -8.81%.

As to `CN1CCC2(CCN(CC3CC3)CC2)C1=O`, the cytotoxicity at 70.5 h was -7.27%.

In the case of `CCOCC1CN(S(=O)(=O)N(C)C)Cc2cnn(CC3CC3)c21` (stereo not drawn), the cytotoxicity at 70.5 h was found to be 2.18%.

Take `Cc1ccsc1CNc1ccc(C(=O)N2CCNC(=O)C2)cn1`: the cytotoxicity at 70.5 h was -2.58%.

Take `Cc1cc(C)c2nc(C3CC3)cc(C(=O)N3CCCC3C(N)=O)c2c1` (stereo not drawn): the cytotoxicity at 70.5 h was determined as 26.2%.

With `O=C(CO)N1C[C@H]2CC[C@@H]1CN(C1Cc3ccccc3C1)C2`, the cytotoxicity at 70.5 h is -8.88%.

For the compound `CN(C)C(=O)N1CCC[C@]2(C(=O)N(C)C)CN(c3ccccn3)C[C@@H]2C1`, the cytotoxicity at 70.5 h was -10.5%.

For `Oc1cc(CC2COCCN(CC3(O)CCOCC3)C2)ncn1` (stereo not drawn), the cytotoxicity at 70.5 h was found to be 23%.

For the compound `O=C(CN1CCOC(CNc2cccnn2)C1)N1CCCCC1` (stereo not drawn), the cytotoxicity at 70.5 h is -6.36%.

On to `CCOCC(=O)N1CCC(C2CCN(Cc3ccc(Cl)cc3)C2)CC1` (stereo not drawn), for which the cytotoxicity at 70.5 h is -2.4%.

On to `O=C1CN(Cc2ccc3ccccc3n2)CCN1C1CCCC1`, for which the cytotoxicity at 70.5 h was -1.73%.

With `N#CC1(C(=O)N2Cc3cc(-c4cc[nH]n4)ccc3C2c2cnco2)CC1` (stereo not drawn), the cytotoxicity at 70.5 h amounted to 1.75%.

With `COCCCn1ccc(NC2CCSCC2)n1`, the cytotoxicity at 70.5 h is -8.74%.

As to `Cc1nn(CCC(=O)NC2CCS(=O)(=O)C2)c(C)c1Br` (stereo not drawn), the cytotoxicity at 70.5 h was -0.845%.

With `CCn1cc(NC(=O)NCC(O)CN2CCc3ccccc3C2)cn1` (stereo not drawn), the cytotoxicity at 70.5 h is 11.8%.

On to `c1cncc(CN2C[C@H]3CCC[C@@H](CNc4cnccn4)[C@H]3C2)c1`, for which the cytotoxicity at 70.5 h is -4.05%.

As for `Cc1nc(C2(NC(=O)NCc3cc(C#N)ccc3F)CCCC2)no1`, the cytotoxicity at 70.5 h is -10.1%.

Turning to `CCOC(=O)N1CCC(NC(=O)c2cccc(C3CCCNC3)c2)CC1` (stereo not drawn), the cytotoxicity at 70.5 h was -24.4%.

As for `O=C1CN(C(=O)c2cc(-c3ccco3)nc3c(Cl)cccc23)CCN1`, the cytotoxicity at 70.5 h stood at 9.84%.

Turning to `CC(C)c1noc(CCCC(=O)N2CCN(Cc3ccsc3)CC2)n1`, the cytotoxicity at 70.5 h was -6.21%.

As for `COc1cccc(OCC2CCCN(C(=O)CCCn3cccn3)C2)c1` (stereo not drawn), the cytotoxicity at 70.5 h is -11%.

Regarding `Cc1nc(CN(C)C(=O)c2cccc(CC3CCNCC3)c2)no1`, the cytotoxicity at 70.5 h came out at 26.4%.

Turning to `C[C@@H]1CN(S(=O)(=O)c2ccc(F)cc2Cl)C[C@]1(C)O`, the cytotoxicity at 70.5 h is -0.172%.

Consider `O=C(NC1CC1)c1cnc(-c2noc3cc(N4CCCCC4)ccc23)s1`, for which the cytotoxicity at 70.5 h was -0.737%.

Take `CC(C)c1ccc(N2CCc3onc(-c4ccc(F)c(F)c4)c3C2)nn1`: the cytotoxicity at 70.5 h is -6.74%.

With `N#Cc1ccc(CN2CCOCC2)cc1`, the cytotoxicity at 70.5 h came out at 2.27%.

`O=C(c1cc[nH]n1)N1CCc2onc(COc3cccnc3)c2C1`: the cytotoxicity at 70.5 h is -6.72%.

For the compound `CC(Nc1cccc(CN2CCOC2=O)c1)C(=O)NC(=O)NC(C)(C)C` (stereo not drawn), the cytotoxicity at 70.5 h was -16.7%.

Turning to `CC(C)c1nn(C)c(N2CCOCC2)c1CNCC(=O)N(C)C`, the cytotoxicity at 70.5 h was -6.07%.

For `CCC(c1ccc(F)cc1F)S(=O)(=O)CCO` (stereo not drawn), the cytotoxicity at 70.5 h is -1.73%.

For `N#Cc1cccc(CN(CCO)Cc2ccsc2)c1`, the cytotoxicity at 70.5 h is -20.4%.

`CCn1cc2c(n1)C(COC)CN(C(=O)COc1ccccc1)C2` (stereo not drawn): the cytotoxicity at 70.5 h stood at 6.15%.

For the compound `Cc1cccc(-c2noc(CN3CCc4nn(C)c(=O)cc4C3)n2)c1`, the cytotoxicity at 70.5 h was found to be 8.08%.

On to `COCCNC(=O)Cn1c(-c2ccc(F)cc2)nc(C)c(CCO)c1=O`, for which the cytotoxicity at 70.5 h is -2.18%.

As for `Cc1cc(F)c(C(C(=O)O)N2CCN(Cc3ccccn3)CC2)cc1Cl` (stereo not drawn), the cytotoxicity at 70.5 h was -6.6%.

In the case of `Cc1cnccc1NCCn1ccnc1C1CCCCC1`, the cytotoxicity at 70.5 h came out at 0.0765%.

For the compound `CN(C)c1nc2c(c(N(C)Cc3n[nH]c4c3CCCC4)n1)CCNCC2`, the cytotoxicity at 70.5 h is -7.02%.

With `CCOC(=O)CNC(=O)C1CN(C(=O)c2cnccn2)C1`, the cytotoxicity at 70.5 h is -5.07%.

As for `Cc1nc(C)n(CC2CCCN(c3ncnc4ccccc34)C2)n1` (stereo not drawn), the cytotoxicity at 70.5 h is -6.84%.

For the compound `O=C(C1CC1)N1CCc2nc(C3CCN(C(=O)C4CC4)C3)nc(O)c2C1` (stereo not drawn), the cytotoxicity at 70.5 h is -10%.

For `CCc1nc(CN2CCCN(C(=O)CC3CCCC3)CC2)cs1`, the cytotoxicity at 70.5 h worked out at 4.58%.

Turning to `CC(C)CN1CCC2(CCN(C(=O)c3ccc(F)cc3)CC2)C1=O`, the cytotoxicity at 70.5 h is -5.58%.

For the compound `CN(C)C(=O)C1CCCN1CCCNC(=O)c1cccc2[nH]ncc12` (stereo not drawn), the cytotoxicity at 70.5 h was found to be 12.2%.

`CNCc1n[nH]c(=O)n1CC1CCCCC1`: the cytotoxicity at 70.5 h was -5.1%.

Regarding `O=C(C1CCC2(CCN(c3ncccn3)CC2)CO1)N1CCCC1` (stereo not drawn), the cytotoxicity at 70.5 h was -5.27%.

In the case of `Cn1cnc2cc(C(=O)N3CCN(CCO)[C@@H]4CS(=O)(=O)C[C@@H]43)ccc21`, the cytotoxicity at 70.5 h is -0.937%.

On to `CC(OCC1CC1)C(=O)N1CCCN(c2ncccc2C#N)CC1` (stereo not drawn), for which the cytotoxicity at 70.5 h worked out at 15.5%.

As to `c1coc(-c2nnc(CN(Cc3cccs3)CC3CCCO3)o2)c1` (stereo not drawn), the cytotoxicity at 70.5 h is -6.66%.

Take `CN(C)CC(=O)N1Cc2nc(C(=O)N3CCCN(C)CC3)oc2C1`: the cytotoxicity at 70.5 h is -7.8%.

Take `Cn1ccnc1CCNS(=O)(=O)c1cccnc1`: the cytotoxicity at 70.5 h was -4.82%.

Take `CNS(=O)(=O)c1cccc(C(C)NCc2cccc(OC)c2)c1` (stereo not drawn): the cytotoxicity at 70.5 h came out at 10.9%.

On to `Cc1ccc(C)n1-c1c(C(=O)NCC(C)N(C)C)cnn1C` (stereo not drawn), for which the cytotoxicity at 70.5 h was -0.908%.

In the case of `O=C(c1ncccc1O)N1CCc2c(nc(-c3ccncc3)[nH]c2=O)C1`, the cytotoxicity at 70.5 h was found to be 9.03%.

Consider `CC(C)N1CCc2onc(Cn3cccc3)c2C1`, for which the cytotoxicity at 70.5 h is -2.22%.

On to `c1cncc(C[C@H]2[C@H](N3CCOCC3)CCN2Cc2cccs2)c1`, for which the cytotoxicity at 70.5 h is -5.01%.

On to `Cc1cc(C)n(C2CCCN(C(=O)c3cccc(F)c3F)C2)n1` (stereo not drawn), for which the cytotoxicity at 70.5 h is 38.7%.

For `CO[C@H]1CCN(Cc2c(C)noc2C)[C@@H]2CN(Cc3cccnc3)C[C@H]12`, the cytotoxicity at 70.5 h was -7.23%.

For `O[C@H]1Cc2ccccc2[C@H]1n1ccnc1-c1cc2n(n1)CCNC2`, the cytotoxicity at 70.5 h is -2.39%.

Take `Cc1nc(C)n(Cc2cccc(NC3CCN(C)C3=O)c2)n1` (stereo not drawn): the cytotoxicity at 70.5 h is -10.6%.

As for `N#Cc1nccnc1NC1CCN(c2c(F)cccc2F)C1` (stereo not drawn), the cytotoxicity at 70.5 h was -4.72%.

For `Cn1c(=O)oc2cc(S(=O)(=O)N3CCC(c4ccccc4)C3)c(Cl)cc21` (stereo not drawn), the cytotoxicity at 70.5 h came to 25%.

In the case of `Cc1cnn(CCNCc2ccc(OCc3cscn3)cc2)c1`, the cytotoxicity at 70.5 h is -6.84%.

With `Cc1ccc(-c2nnc(C3CCCN3S(=O)(=O)c3cnn(C)c3C)o2)s1` (stereo not drawn), the cytotoxicity at 70.5 h was 2.03%.

For the compound `CCn1nnnc1-c1cccc(NC(=O)CCn2cc(C)cn2)c1`, the cytotoxicity at 70.5 h was -7.36%.

`CCc1nc(CC(=O)N2CCCC2c2c(C)nn(C)c2OC)cs1` (stereo not drawn): the cytotoxicity at 70.5 h was -8.39%.

For `CC(C(=O)NCCOc1ccc(F)cc1)n1cncn1` (stereo not drawn), the cytotoxicity at 70.5 h was -14.7%.

Turning to `CC(C)NC(=O)N1CC[C@@H]2CN(Cc3cccc(Cl)c3)S(=O)(=O)[C@@H]2CC1`, the cytotoxicity at 70.5 h amounted to 27%.
